Measurements as given in patent US20040229810A1, “Gastrin compositions and formulations, and methods of use and preparation” (priority 2002, published 2004).
Like-named read-outs stand apart in the source and are kept apart here. Where a SMILES comes first, the peptide text is derived from it. Where no end group is shown, it is not given here. [ ]: non-standard residue; d: D form. pGlu = O=C1CC[C@@H](C(=O)O)N1

How the values were obtained:
[1] = tested on: NOD mice with recent onset diabetes; experiment: Modified vs unmodified gastrin in combination with GLP-1 in preventing diabetes progression in NOD mice with recent onset diabetes; format: in vivo; conditions: in combination with GLP-1 (100 μg/kg/day); gastrin compound 3 μg/kg/day gastrin equivalent i.p. daily for 14 days; compared to GLP-1 with native gastrin (Compound B)
Text: In this example, the effect of treatment by a combination of GLP-1 and unmodified gastrin and GLP-1 and modified gastrin compounds/conjugates were examined in NOD mice with recent onset diabetes, to determine whether administration of both GLP-1 and gastrin would prevent severe hyperglycemia as well as increase pancreatic insulin content in NOD mice with recent-onset diabetes. The GLP-1 used was GLP-1 which is the biologically active fragment of human/mouse GLP-1 (having residues at positions 7-36 compared to the precursor from which the fragment is processed; obtained from Bachem H6795). […]
Non-obese diabetic (NOD) female mice, ages 12-14 weeks, were monitored for development of onset of diabetes (fasting blood glucose >8.0 to 15 mmol/l), and within 48 hours after onset of symptoms, four groups of mice were each treated as follows: one group was treated with vehicle only; and the other group was administered 100 μg/kg/day of GLP-1, and the remaining groups were treated with combination of GLP-1 (100 μg/kg/day) and gastrin compound (3 μg/kg/day gastrin equivalent), each treatment administered via the intraperitoneal route daily.
Therapy was administered for 14 days. Animals were monitored weekly for fasting blood glucose (FBG) levels. FBG levels were measured at about 12 hours after food had been withdrawn, and 24 hours after the last peptide or vehicle injection. […]

[2] = in vivo; conditions: male, cynomolgus monkey, iv
[3] = cited from earlier work

## Compound E: gastrin peptide residues 2-17 of SEQ ID NO: 4 with N-terminal Cys residue, no linker (CGPWLEEEEEAYGWLDF; not fully specified (C-terminus); ends and bridges not checked)
[1]
  reducing blood glucose levels in diabetic animals: more effecting in reducing blood glucose levels

## CC(C)C[C@H](NC(=O)[C@H](Cc1c[nH]c2ccccc12)NC(=O)CNC(=O)[C@H](Cc1ccc(O)cc1)NC(=O)[C@H](C)NC(=O)[C@H](CCC(=O)O)NC(=O)[C@H](CCC(=O)O)NC(=O)[C@H](CCC(=O)O)NC(=O)[C@H](CCC(=O)O)NC(=O)[C@H](CCC(=O)O)NC(=O)[C@H](CC(C)C)NC(=O)[C@H](Cc1c[nH]c2ccccc12)NC(=O)[C@@H]1CCCN1C(=O)CNC(=O)[C@@H]1CCC(=O)N1)C(=O)N[C@@H](CC(=O)O)C(=O)N[C@@H](Cc1ccccc1)C(N)=O [Compound B] ([pGlu]GPWLEEEEEAYGWLDF-NH2)
[2]; 3 ug/kg
  AUC: 4.18 ng·h/mL
  Cmax: 27 ng/mL
  Tmax: 2 min
[2]; 3 ug/kg, t ½
  half-life: 5 min
[2]; 30 ug/kg
  AUC: 42.1 ng·h/mL
  Cmax: 268 ng/mL
  Tmax: 1 min
[2]; 30 ug/kg, plasma t1/2
  half-life: 4 to 5 min
[2]; 30 ug/kg, t ½
  half-life: 5 min
[2]; cynomolgus, 10 ug/kg
  AUC: 15.7 ng·h/mL
  Cmax: 127 ng/mL
  Tmax: 1 min
[2]; cynomolgus, 10 ug/kg, t ½
  half-life: 4 min

## Compound Q: human serum albumin conjugate of N-terminal Cys gastrin peptide residues 2-17 of SEQ ID NO: 4 with (GA)5 linker (GPWLEEEEEAYGWLDF; not fully specified (N-terminus, C-terminus); ends and bridges not checked; also: human serum albumin conjugate)
[1]
  reducing blood glucose levels in diabetic animals: more effecting in reducing blood glucose levels

## Gastrin-17
[3]; in vivo
  circulating half-life: 5 to 9 min

## gastrin-34 ([pGlu]LGPQGPPHLVADPSKKQGPWLEEEEEAYGWMDF-NH2; ends and bridges not checked; UniProt P01350 59-92, looked up)
[3]; background statement
  circulating half-life: about 35 mins
